From ChEMBL document CHEMBL1201862, “PubChem BioAssay data set” (2004)
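These data come from cells grown in 96-well plates and exposed to compound for 48 hours at five concentrations. Here, GI50 denotes the concentration required for 50% inhibition of growth.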 The source made the active and inactive calls. Cut-off read from the data, not from the text of the source: active = GI50 up to about 1.1 µM and inactive = higher.

Assays:
Test in all cases: NCI tumour cell line growth inhibition, 48 h
[1] = system: A498
[2] = system: BT-549
[3] = system: HCT-15
[4] = system: HL-60
[5] = system: LOX IMVI
[6] = system: M14
[7] = system: MCF7
[8] = system: MOLT-4
[9] = system: Malme-3M
[10] = system: NCI-H226
[11] = system: NCI-H522
[12] = system: OVCAR-8
[13] = system: SF-295
[14] = system: SN12C
[15] = system: SR
[16] = system: TK-10
[17] = system: UACC-257
[18] = system: DU-145
[19] = system: RXF 393
[20] = system: SNB-75

SMILES | GI50 [1] | GI50 [2] | GI50 [3] | GI50 [4] | GI50 [5] | GI50 [6] | GI50 [7] | GI50 [8] | GI50 [9] | GI50 [10] | GI50 [11] | GI50 [12] | GI50 [13] | GI50 [14] | GI50 [15] | GI50 [16] | GI50 [17] | GI50 [18] | GI50 [19] | GI50 [20]
Cc1cc(=O)oc2c(OS(C)(=O)=O)c(OS(C)(=O)=O)ccc12 | > 100 µM (inactive) | > 100 µM (inactive) | > 100 µM | > 100 µM (inactive) | > 100 µM (inactive) | > 100 µM (inactive) | > 100 µM (inactive) | > 100 µM (inactive) | > 100 µM (inactive) | > 100 µM (inactive) | > 100 µM (inactive) | > 100 µM (inactive) | > 100 µM (inactive) | > 100 µM (inactive) | > 100 µM (inactive) | > 100 µM (inactive) | > 100 µM (inactive) |  |  | 
COC(=O)Nc1nc2cc(NS(=O)(=O)c3cccs3)ccc2[nH]1 | 28 µM (inactive) | 71.8 µM (inactive) | 14.3 µM | 23 µM (inactive) | 36.3 µM (inactive) | 21.5 µM (inactive) | 17.8 µM (inactive) | 13.6 µM (inactive) | 10.4 µM (inactive) | 32.2 µM (inactive) | 6.55 µM (inactive) | 36.4 µM (inactive) | 24.9 µM (inactive) | 39.1 µM (inactive) |  | 25.9 µM (inactive) |  | 47.3 µM (inactive) | 19.3 µM (inactive) | 20.7 µM (inactive)
CC(C)=C[C@H]1CCC2(OCCO2)[C@]1(C)CO | > 100 µM (inactive) | > 100 µM (inactive) | > 100 µM |  | > 100 µM (inactive) | > 100 µM (inactive) | > 100 µM (inactive) |  | > 100 µM (inactive) | > 100 µM (inactive) | > 100 µM (inactive) | > 100 µM (inactive) | > 100 µM (inactive) | > 100 µM (inactive) |  | > 100 µM (inactive) | > 100 µM (inactive) |  | > 100 µM (inactive) | > 100 µM (inactive)
Cn1c(=O)oc2nc(-c3ccccc3)cc(C(F)(F)F)c21 | 39.2 µM (inactive) | > 100 µM (inactive) | > 100 µM |  |  | > 100 µM (inactive) | 37.8 µM (inactive) | 14.3 µM (inactive) |  | > 100 µM (inactive) | > 100 µM (inactive) | > 100 µM (inactive) | > 100 µM (inactive) | 5.71 µM (inactive) | 44.6 µM (inactive) | > 100 µM (inactive) | > 100 µM (inactive) | > 100 µM (inactive) |  | > 100 µM (inactive)
CC(CO)C1C[C@H](O)[C@@]2(C)CC(=O)C=C(CO)[C@@H]2C1 (stereo not given in full) | > 100 µM (inactive) | > 100 µM (inactive) | > 100 µM | 92 µM (inactive) | > 100 µM (inactive) | > 100 µM (inactive) | > 100 µM (inactive) | > 100 µM (inactive) |  | > 100 µM (inactive) |  | > 100 µM (inactive) | > 100 µM (inactive) | > 100 µM (inactive) |  | > 100 µM (inactive) | > 100 µM (inactive) | > 100 µM (inactive) | > 100 µM (inactive) | > 100 µM (inactive)
CC(=O)OCCCCn1nncc1Cn1ccc(=O)n(Cc2cnnn2CCCCOC(C)=O)c1=O | > 100 µM (inactive) | > 100 µM (inactive) | > 100 µM |  | > 100 µM (inactive) | > 100 µM (inactive) | > 100 µM (inactive) | > 100 µM (inactive) | > 100 µM (inactive) | > 100 µM (inactive) |  | > 100 µM (inactive) | > 100 µM (inactive) | > 100 µM (inactive) |  | > 100 µM (inactive) | > 100 µM (inactive) | > 100 µM (inactive) | > 100 µM (inactive) | > 100 µM (inactive)
Cc1cc2c(cc1C(=O)c1ccc(N)cc1)OCO2 |  | 48.8 µM (inactive) | 30.4 µM | 49.9 µM (inactive) |  | 29.4 µM (inactive) | 20.1 µM (inactive) | 40.1 µM (inactive) | 33.8 µM (inactive) |  | 19.1 µM (inactive) | > 100 µM (inactive) | 21.9 µM (inactive) | 49.5 µM (inactive) | 5.08 µM (inactive) | 28.2 µM (inactive) | > 100 µM (inactive) | 55 µM (inactive) |  | 
O=C(NN=C1NCCN1)c1ccco1 |  | > 100 µM (inactive) | > 100 µM | > 100 µM (inactive) | > 100 µM (inactive) | > 100 µM (inactive) | > 100 µM (inactive) | > 100 µM (inactive) | > 100 µM (inactive) | 62.4 µM (inactive) | > 100 µM (inactive) | > 100 µM (inactive) | > 100 µM (inactive) | > 100 µM (inactive) | > 100 µM (inactive) | > 100 µM (inactive) | > 100 µM (inactive) | > 100 µM (inactive) | > 100 µM (inactive) | > 100 µM (inactive)
CC(C(O)c1ccccc1)N(C)/N=N/c1nc2c([nH]1)c(=O)n(C)c(=O)n2C (stereo not given) |  | > 100 µM (inactive) | 90.4 µM | > 100 µM (inactive) |  | > 100 µM (inactive) | 26.1 µM (inactive) | 38.3 µM (inactive) | > 100 µM (inactive) | > 100 µM (inactive) |  | > 100 µM (inactive) | > 100 µM (inactive) | 52.6 µM (inactive) |  | 64.1 µM (inactive) | > 100 µM (inactive) | 99.3 µM (inactive) | 42.9 µM (inactive) | > 100 µM (inactive)
COc1cc2c(cc1O)CC[n+]1cc3c(OC)c(OC)ccc3cc1-2 | > 100 µM (inactive) | 47.3 µM (inactive) | > 100 µM | > 100 µM (inactive) | > 100 µM (inactive) | > 100 µM (inactive) | > 100 µM (inactive) | > 100 µM (inactive) | 59.6 µM (inactive) | > 100 µM (inactive) | > 100 µM (inactive) | > 100 µM (inactive) | > 100 µM (inactive) | > 100 µM (inactive) |  | > 100 µM (inactive) | 90.4 µM (inactive) | > 100 µM (inactive) |  | > 100 µM (inactive)
Nc1nc2cc(CNc3ccc(C(=O)NC(CCC(=O)O)C(=O)O)cc3)ccc2nc1-c1ccccc1 (stereo not given) | > 10 µM (inactive) | > 10 µM (inactive) | > 10 µM | > 10 µM (inactive) | > 10 µM (inactive) | > 10 µM (inactive) | > 10 µM (inactive) | > 10 µM (inactive) | > 10 µM (inactive) | > 10 µM (inactive) | > 10 µM (inactive) | > 10 µM (inactive) | > 10 µM (inactive) | > 10 µM (inactive) |  | > 10 µM (inactive) | > 10 µM (inactive) | > 10 µM (inactive) | > 10 µM (inactive) | > 10 µM (inactive)
Cc1ccc([S+]([O-])CC(CF)OCn2cc(C)c(=O)[nH]c2=O)cc1 (stereo not given) |  | 90.2 µM (inactive) | > 100 µM | > 100 µM (inactive) | > 100 µM (inactive) | > 100 µM (inactive) | > 100 µM (inactive) | > 100 µM (inactive) | > 100 µM (inactive) | > 100 µM (inactive) | > 100 µM (inactive) | > 100 µM (inactive) | > 100 µM (inactive) | > 100 µM (inactive) | > 100 µM (inactive) | > 100 µM (inactive) |  | > 100 µM (inactive) |  | > 100 µM (inactive)
O=c1[nH]nc(Cc2ccccc2)n1/N=C/c1ccc([N+](=O)[O-])o1 | 7.41 µM (inactive) | 0.308 µM (active) | 2.08 µM | 2.95 µM (inactive) | 0.659 µM (active) | 2.24 µM (inactive) | 1.86 µM (inactive) | 2.42 µM (inactive) | 1.51 µM (inactive) | 12.5 µM (inactive) | 1.39 µM (inactive) | 2.16 µM (inactive) | 7.62 µM (inactive) | 3.31 µM (inactive) |  | 4.36 µM (inactive) | 3.56 µM (inactive) | 3.77 µM (inactive) | 1.88 µM (inactive) | 3.3 µM (inactive)
CN1CC=C(C#CC(C)(C)O)CC1 |  | > 37.5 µM (inactive) | > 37.5 µM | > 37.5 µM (inactive) | > 37.5 µM (inactive) | > 37.5 µM (inactive) | > 37.5 µM (inactive) | > 37.5 µM (inactive) | 30.8 µM (inactive) | > 37.5 µM (inactive) |  | > 37.5 µM (inactive) | > 37.5 µM (inactive) | > 37.5 µM (inactive) | > 37.5 µM (inactive) | > 37.5 µM (inactive) | > 37.5 µM (inactive) | > 37.5 µM (inactive) | > 37.5 µM (inactive) | > 37.5 µM (inactive)
C=CCCCC1CCCNC1=O (stereo not given) | > 100 µM (inactive) | > 100 µM (inactive) | 19 µM |  |  | > 100 µM (inactive) | > 100 µM (inactive) | > 100 µM (inactive) |  | > 100 µM (inactive) | > 100 µM (inactive) | > 100 µM (inactive) | > 100 µM (inactive) | > 100 µM (inactive) |  | > 100 µM (inactive) | > 100 µM (inactive) | > 100 µM (inactive) | > 100 µM (inactive) | > 100 µM (inactive)
CCN(CC)CCC(=O)c1ccc(Oc2ccccc2)cc1 |  | 18.7 µM (inactive) | 17.4 µM |  | 16.8 µM (inactive) | 38.1 µM (inactive) | 17.9 µM (inactive) | 20 µM (inactive) | 15.1 µM (inactive) | > 100 µM (inactive) |  | 39.7 µM (inactive) | 55.3 µM (inactive) | 17.6 µM (inactive) | 39.4 µM (inactive) | 14.2 µM (inactive) | 17.2 µM (inactive) | 27.7 µM (inactive) | 18.9 µM (inactive) | 19.5 µM (inactive)
